Laboratory results as given in ChEMBL document CHEMBL1128159, “Synthesis and evaluation of diacylhydrazines as inhibitors of the interleukin-1 converting enzyme (ICE)” (Bioorg Med Chem Lett, 1995).
Where a SMILES comes first, the peptide text is derived from it.

Tests used:
[1] = Half life of compound in ICE assay buffer (1 mM glutathione) at […] degree C; type: ADME; conditions: ICE assay buffer with 1 mM glutathione
[2] = Half life of compound in ICE assay buffer (1 mM dithiothreitol) at 25 degree C (89% intact after 120 h); type: ADME; conditions: ICE assay buffer with 1 mM dithiothreitol
Caspase-1 (Homo sapiens) = target: T1, Caspase-1 (Homo sapiens) (UniProt P29466); assay: Compound was tested for inhibition of IL-1 beta converting enzyme by measuring second order rate of inactivation
T1 sequence (whole entry): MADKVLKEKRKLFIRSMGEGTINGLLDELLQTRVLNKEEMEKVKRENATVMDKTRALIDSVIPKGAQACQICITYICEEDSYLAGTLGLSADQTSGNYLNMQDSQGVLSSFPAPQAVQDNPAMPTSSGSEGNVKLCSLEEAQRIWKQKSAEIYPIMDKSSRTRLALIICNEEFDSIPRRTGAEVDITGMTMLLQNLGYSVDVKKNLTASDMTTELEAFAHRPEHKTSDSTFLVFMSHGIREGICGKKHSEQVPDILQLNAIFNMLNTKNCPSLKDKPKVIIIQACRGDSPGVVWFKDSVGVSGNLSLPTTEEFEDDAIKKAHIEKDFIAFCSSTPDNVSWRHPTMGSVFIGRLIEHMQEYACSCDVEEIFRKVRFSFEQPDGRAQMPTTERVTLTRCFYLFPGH

[3] = Half life of compound in ICE assay buffer (1 mM dithiothreitol) at 25 degree C (98% intact after 120 h); type: ADME; conditions: ICE assay buffer with 1 mM dithiothreitol
[4] = Half life of compound in ICE assay buffer (1 mM dithiothreitol) at 25 degree C; type: ADME; conditions: ICE assay buffer with 1 mM dithiothreitol

Compound	half-life [1] [h]	second-order inactivation rate constant (kobs/[I]) (Caspase-1 (Homo sapiens)) [M⁻¹ s⁻¹]	further results
CC(C)[C@H](NC(=O)OCc1ccccc1)C(=O)N[C@@H](C)C(=O)NC(CC(=O)O)C(=O)COC1=C(Cc2ccccc2)C(=O)OC1 (some centres undefined)	–	290000	–
CC(C)[C@H](NC(=O)OCc1ccccc1)C(=O)N[C@@H](C)C(=O)NN(CC(=O)O)C(=O)COP(=O)(c1ccccc1)c1ccccc1	130	19400	half-life [3]: > 120 h
CC(C)[C@H](NC(=O)OCc1ccccc1)C(=O)N[C@@H](C)C(=O)N[C@@H](CC(=O)O)C(=O)COP(=O)(c1ccccc1)c1ccccc1	0.96	118000	–
CC(C)[C@H](NC(=O)OCc1ccccc1)C(=O)N[C@@H](C)C(=O)N[C@@H](CC(=O)O)C(=O)CCl (HELM PEPTIDE1{[O=C(OCc1ccccc1)[*:2]].V.A.D.[ClC[*:1]]}$$$$V2.0)	–	–	half-life [4]: 0.25 h
CC(C)[C@H](NC(=O)OCc1ccccc1)C(=O)N[C@@H](C)C(=O)NN(CC(=O)O)C(=O)COc1cc(C(F)(F)F)nn1-c1ccccc1	–	470	–

Further lines, with some results ahead:

half-life [1] [h]	second-order inactivation rate constant (kobs/[I]) (Caspase-1 (Homo sapiens)) [M⁻¹ s⁻¹]	Compound	further results
3.5	27300	CC(C)[C@H](NC(=O)OCc1ccccc1)C(=O)N[C@@H](C)C(=O)NN(CC(=O)O)C(=O)CCl	half-life [2]: > 120 h
–	120	CC(C)[C@H](NC(=O)OCc1ccccc1)C(=O)N[C@@H](C)C(=O)NN(CC(=O)O)C(=O)COC1=C(Cc2ccccc2)C(=O)OC1	–
–	1640	CC(C)[C@H](NC(=O)OCc1ccccc1)C(=O)N[C@@H](C)C(=O)NN(CC(=O)O)C(=O)CBr	–
–	700	CC(C)[C@H](NC(=O)OCc1ccccc1)C(=O)N[C@@H](C)C(=O)NN(CC(=O)O)C(=O)COC(=O)c1c(Cl)cccc1Cl	–
